Measured values from patent publication US9302999B2, “Substituted triazoles as herbicides” (E. I. DU PONT DE NEMOURS AND COMPANY, priority 2012, dated 2016).

Key:
[1] = tested on: ragweed (common ragweed, Ambrosia elation); test: Test E pre-/postemergence: ragweed; format: in vivo; conditions: Preemergence, scale 0 to 100
Text: (§1) Seeds of plant species selected from corn (Zea mays), soybean (Glycine max), velvetleaf (Abutilon theophrasti), lambsquarters (Chenopodium album), poinsettia, wild (wild poinsettia, Euphorbia heterophylla), pigweed, palmer (palmer pigweed, Amaranthus palmeri), waterhemp (common waterhemp, Amaranthus rudis), smartweed (ladysthumb smartweed, Polygonum persicaria), surinam grass (Brachiaria decumbens), crabgrass, large (large crabgrass, Digitaria sanguinalis), crabgrass, Brazil (Brazilian crabgrass, Digitaria horizontalis), panicum, fall (fall panicum, Panicum dichotomiflorum), foxtail, giant (giant foxtail, Setaria faberii), foxtail, green (green foxtail, Setaria viridis), goosegrass (Eleusine indica), johnsongrass (Sorghum halepense), ragweed (common ragweed, Ambrosia elation), barnyardgrass (Echinochloa crus-galli), sandbur (southern sandbur, Cenchrus echinatus), arrowleaf sida (Sida rhombifolia), ryegrass, Italian (Italian ryegrass, Lolium multiflorum), dayflower, (VA) (Virginia dayflower, Commelina virginica), field bindweed (Convolvulus arvensis), cocklebur (common cocklebur, Xanthium strumarium), morningglory (Ipomoea coccinea), nightshade (eastern black nightshade, Solanum ptycanthum), kochia (Kochia scoparia), nutsedge, yellow (yellow nutsedge, Cyperus esculentus) and beggarticks (hairy beggarticks, Bidens pilosa) were planted into a silt loam soil and treated preemergence with test chemicals formulated in a non-phytotoxic solvent mixture which included a surfactant. At the same time, plants selected from these crop and weed species were planted in pots containing a growing medium comprising spaghnum peat moss, vermiculite, wetting agent and starter nutrients and treated with postemergence applications of some of the test chemicals formulated in the same manner. Plants ranged in height from 2 to 18 cm for postemergence treatments (1- to 4-leaf stage).
(§2) Treated plants and controls were maintained in a greenhouse for 14 to 21 days, after which time all species were compared to controls and visually evaluated. Plant response ratings, summarized in Table E, are based on a scale of 0 to 100 where 0 is no effect and 100 is complete control. A dash (-) response means no test result.

[2] = tested on: waterhemp (common waterhemp, Amaranthus rudis); test: Test E pre-/postemergence: waterhemp; format: in vivo; conditions: Preemergence, scale 0 to 100
Text: as §1, §2

[3] = tested on: poinsettia, wild (wild poinsettia, Euphorbia heterophylla); test: Test E pre-/postemergence: poinsettia, wild; format: in vivo; conditions: Preemergence, scale 0 to 100
Text: as §1, §2

[4] = tested on: panicum, fall (fall panicum Panicum dichotomiflorum); test: Test F pre-/postemergence: panicum, fall; format: in vivo
Text: (§3) Seeds of plant species selected from corn (Zea mays), soybean (Glycine max), velvetleaf (Abutilon theophrasti), lambsquarters (Chenopodium album), poinsettia, wild (wild poinsettia, Euphorbia heterophylla), pigweed, palmer (palmer pigweed, Amaranthus palmeri), waterhemp (common waterhemp, Amaranthus rudis), surinam grass (Brachiaria decumbens), crabgrass, Brazil (Brazilian crabgrass, Digitaria horizontalis), panicum, fall (fall panicum Panicum dichotomiflorum), crabgrass, large (large crabgrass, Digitaria sanguinalis), foxtail, giant (giant foxtail, Setaria faberii), foxtail, green (green foxtail Setaria viridis), goosegrass (Eleusine indica), ragweed (common ragweed, Ambrosia elatior), barnyardgrass (Echinochloa crus-galli), sandbur (southern sandbur, Cenchrus echinatus), arrowleaf sida (Sida rhombifolia), ryegrass, Italian (Italian ryegrass, Lolium multiflorum), dayflower, VA (Virginia (VA) dayflower, Commelina virginica), field bindweed (Convolvulus arvensis), cocklebur (common cocklebur, Xanthium strumarium), morningglory (Ipomoea coccinea), nightshade (eastern black nightshade, Solanum ptycanthum), kochia (Kochia scoparia), nutsedge, yellow (yellow nutsedge, Cyperus esculentus), johnsongrass (Sorghum halepense), smartweed (ladysthumb smartweed, Polygonum persicaria), and beggarticks (hairy beggarticks, Bidens pilosa), were planted into a silt loam soil and treated preemergence with test chemicals formulated in a non-phytotoxic solvent mixture which included a surfactant. At the same time, plants selected from these crop and weed species and also pigweed (Amaranthus retroflexus), waterhemp_RES1 (ALS/Triazine resistant common waterhemp, Amaranthus rudis) and waterhemp_RES2 (ALS/HPPD resistant common waterhemp, Amaranthus rudis) were planted in pots containing a planting medium comprising spaghnum peat moss, vermiculite, wetting agent and starter nutrients treated with postemergence applications of some of the test chemicals formulated in the same manner. Plants ranged in height from 2 to 18 cm for postemergence treatments (1- to 4-leaf stage).
as §2

[5] = tested on: cocklebur (common cocklebur, Xanthium strumarium); test: Test F pre-/postemergence: cocklebur; format: in vivo; conditions: Preemergence
Text: as §3, §2

Waterhemp = test: Test C preemergence: waterhemp; format: in vivo, Amaranthus rudis; conditions: 125 g ai/ha, scale 0 to 100, 0 no effect, 100 complete control
[6] = tested on: morningglory (Ipomoea coccinea); test: Test F pre-/postemergence: morningglory; format: in vivo; conditions: Preemergence
Text: as §3, §2

[7] = tested on: crabgrass, large (large crabgrass, Digitaria sanguinalis); test: Test F pre-/postemergence: crabgrass, large; format: in vivo; conditions: Preemergence
Text: as §3, §2

[8] = tested on: barnyardgrass (Echinochloa crus-galli); test: Test F pre-/postemergence: barnyardgrass; format: in vivo
Text: as §3, §2

[9] = Postemergence, 4 g ai/ha, scale 0 to 100
[10] = Postemergence, 8 g ai/ha, scale 0 to 100
[11] = Postemergence, 16 g ai/ha, scale 0 to 100
[12] = Postemergence, 31 g ai/ha, scale 0 to 100
[13] = Postemergence, 62 g ai/ha, scale 0 to 100
[14] = Preemergence, 4 g ai/ha, scale 0 to 100, 0 no effect, 100 complete control
[15] = Preemergence, 8 g ai/ha, scale 0 to 100, 0 no effect, 100 complete control
[16] = Preemergence, 16 g ai/ha, scale 0 to 100 (0 no effect, 100 complete control)
[17] = Preemergence, 31 g ai/ha, scale 0 to 100 (0 no effect, 100 complete control)
[18] = 4 g ai/ha, scale 0 to 100, 0 no effect, 100 complete control
[19] = 8 g ai/ha, scale 0 to 100, 0 no effect, 100 complete control
[20] = 31 g ai/ha, scale 0 to 100 (0 no effect, 100 complete control)
[21] = 16 g ai/ha, scale 0 to 100 (0 no effect, 100 complete control)
[22] = Postemergence, 125 g ai/ha, scale 0 to 100

Cc1nn(-c2ccc(F)cc2)nc1Cc1ccnc(C(F)(F)F)c1 [Compound 16, 4-[[2-(4-fluorophenyl)-5-methyl-2H-1,2,3-triazol-4-yl]methyl]-2-(trifluoromethyl)pyridine]
Plant response rating: Ragweed ([1]; 8 g ai/ha): 0
Plant response rating: Ragweed ([1]; 16 g ai/ha): 0
Plant response rating: Ragweed ([1]; 31 g ai/ha): 0
Plant response rating: Ragweed ([1]; 62 g ai/ha): 30
Plant response rating: Ragweed ([1]; 125 g ai/ha): 30
Plant response rating: Waterhemp ([2]; 8 g ai/ha): 60
Plant response rating: Waterhemp ([2]; 16 g ai/ha): 70
Plant response rating: Waterhemp ([2]; 31 g ai/ha): 100
Plant response rating: Waterhemp ([2]; 62 g ai/ha): 100
Plant response rating: Waterhemp ([2]; 125 g ai/ha): 100
Plant response rating: Poinsettia, Wild ([3]; 8 g ai/ha): 0
Plant response rating: Poinsettia, Wild ([3]; 16 g ai/ha): 0
Plant response rating: Poinsettia, Wild ([3]; 31 g ai/ha): 20
Plant response rating: Poinsettia, Wild ([3]; 62 g ai/ha): 40
Plant response rating: Poinsettia, Wild ([3]; 125 g ai/ha): 98

Cc1nn(-c2ccc(C(F)(F)F)c(F)c2)nc1Cc1ccnc(C(F)(F)F)c1 [Compound 162]
Plant response rating, Panicum, Fall [4, 9]: 15
Plant response rating, Panicum, Fall [4, 10]: 20
Plant response rating, Panicum, Fall [4, 11]: 20
Plant response rating, Panicum, Fall [4, 12]: 25
Plant response rating, Panicum, Fall [4, 13]: 30
Plant response rating, Panicum, Fall [4, 14]: 0
Plant response rating, Panicum, Fall [4, 15]: 0
Plant response rating, Panicum, Fall [4, 16]: 100
Plant response rating, Panicum, Fall [4, 17]: 100
Plant response rating, Cocklebur [5, 18]: 0
Plant response rating, Cocklebur [5, 19]: 0
Plant response rating, Cocklebur [5, 20]: 0
Plant response rating, Cocklebur ([5]; 62 g ai/ha, scale 0 to 100): 0
Plant response rating, Waterhemp (Waterhemp): 100
Plant response rating, Morningglory [6, 18]: 0
Plant response rating, Morningglory [6, 19]: 0
Plant response rating, Morningglory [6, 21]: 20
Plant response rating, Morningglory [6, 20]: 30
Plant response rating, Crabgrass, Large [7, 19]: 0
Plant response rating, Crabgrass, Large [7, 21]: 0
Plant response rating, Crabgrass, Large [7, 20]: 95
Plant response rating, Crabgrass, Large ([7]; 62 g ai/ha, scale 0 to 100): 100
Plant response rating, Barnyardgrass [8, 9]: 10
Plant response rating, Barnyardgrass [8, 10]: 10
Plant response rating, Barnyardgrass [8, 11]: 10
Plant response rating, Barnyardgrass [8, 12]: 25
Plant response rating, Barnyardgrass [8, 13]: 35
Plant response rating, Barnyardgrass [8, 14]: 0
Plant response rating, Barnyardgrass [8, 15]: 20
Plant response rating, Barnyardgrass [8, 16]: 20
Plant response rating, Barnyardgrass [8, 17]: 30
Plant response rating, Barnyardgrass ([8]; Preemergence, 62 g ai/ha, scale 0 to 100): 30

Cc1nn(-c2ccc(F)c(F)c2)nc1Oc1ccnc(C(F)(F)F)c1 [Compound 145]
Plant response rating, Panicum, Fall [4, 10]: 10
Plant response rating, Panicum, Fall [4, 11]: 25
Plant response rating, Panicum, Fall [4, 12]: 40
Plant response rating, Panicum, Fall [4, 13]: 40
Plant response rating, Panicum, Fall [4, 22]: 40
Plant response rating, Barnyardgrass [8, 10]: 20
Plant response rating, Barnyardgrass [8, 11]: 20
Plant response rating, Barnyardgrass [8, 12]: 30
Plant response rating, Barnyardgrass [8, 13]: 30
Plant response rating, Barnyardgrass [8, 22]: 40
